Target: T1, Kir3.1/Kir3.4 (Rattus norvegicus, UniProt P48548+P63251)
T1 sequence (P63251 whole entry): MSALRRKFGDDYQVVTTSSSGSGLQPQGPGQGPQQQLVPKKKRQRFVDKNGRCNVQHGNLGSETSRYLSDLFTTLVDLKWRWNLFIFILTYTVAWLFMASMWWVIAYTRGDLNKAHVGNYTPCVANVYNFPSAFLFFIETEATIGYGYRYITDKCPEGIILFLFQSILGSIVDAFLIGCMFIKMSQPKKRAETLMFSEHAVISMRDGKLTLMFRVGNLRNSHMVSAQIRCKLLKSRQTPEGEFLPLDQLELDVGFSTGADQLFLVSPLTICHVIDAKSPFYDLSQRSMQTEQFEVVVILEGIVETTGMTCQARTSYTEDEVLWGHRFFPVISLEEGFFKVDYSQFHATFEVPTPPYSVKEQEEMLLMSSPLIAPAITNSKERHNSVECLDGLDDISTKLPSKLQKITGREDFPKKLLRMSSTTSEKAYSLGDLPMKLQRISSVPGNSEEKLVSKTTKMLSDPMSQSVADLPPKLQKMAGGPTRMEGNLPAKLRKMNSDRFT
T1 sequence (P48548 whole entry): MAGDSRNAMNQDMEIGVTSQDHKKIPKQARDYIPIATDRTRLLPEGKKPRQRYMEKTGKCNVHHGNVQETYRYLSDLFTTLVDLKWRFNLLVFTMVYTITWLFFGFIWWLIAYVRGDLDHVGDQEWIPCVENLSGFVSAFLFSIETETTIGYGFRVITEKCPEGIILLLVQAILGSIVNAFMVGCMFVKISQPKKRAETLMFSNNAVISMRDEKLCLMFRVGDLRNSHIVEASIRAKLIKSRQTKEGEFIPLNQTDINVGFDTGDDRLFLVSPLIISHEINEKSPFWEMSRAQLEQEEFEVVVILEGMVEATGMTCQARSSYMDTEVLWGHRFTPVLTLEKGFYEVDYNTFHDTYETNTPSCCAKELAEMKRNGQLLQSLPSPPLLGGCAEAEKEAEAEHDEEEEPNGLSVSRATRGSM
Assay: Inhibition of rat Kir3.1/Kir3.4 expressed in HEK293 cells assessed as reduction in depolarizing voltage step-induced recombinant G-protein activated inward rectifier current by whole cell patch clamp assay
Assay type: cell-based

| IC50 [nM] | SMILES |
| --- | --- |
| < 500 | NC(=O)C1CCN(CCOCC2CCN(c3ncnc4scc(-c5ccccc5)c34)CC2)C1 (configuration not stated) |
| < 500 | CN1CCC(OCC2CCN(c3ncnc4scc(-c5ccccc5)c34)CC2)C1 (configuration not stated) |
| < 500 | c1ccc(-c2csc3ncnc(N4CC5C(COCCN6CCCC6)C5C4)c23)cc1 (configuration not stated) |
| < 500 | c1ccc(-c2csc3ncnc(N4CCC(COCCN5CC6CC5CO6)CC4)c23)cc1 (configuration not stated) |
| < 500 | F[C@H]1CCN(CCOCC2CCN(c3ncnc4scc(-c5ccccc5)c34)CC2)C1 |
| < 500 | CN(C)CCCOCC1CCN(c2ncnc3scc(-c4ccccc4)c23)CC1 |
| < 500 | c1ccc(-c2csc3ncnc(N4CCC(COCCN5CCOCC5)CC4)c23)cc1 |
| < 500 | CN(C)CCOCC1CCN(c2ncnc3scc(-c4ccccc4)c23)CC1 |
| < 500 | CN1CCCCC1CCOCC1CCN(c2ncnc3scc(-c4ccccc4)c23)CC1 (configuration not stated) |
| < 500 | CC(=O)NC1CCN(CCOCC2CCN(c3ncnc4scc(-c5ccccc5)c34)CC2)C1 (configuration not stated) |
| < 500 | CN1CCC(OCC2CCN(c3ncnc4scc(-c5ccccc5)c34)CC2)CC1 |
| < 500 | NC(=O)C1CCCN1CCOCC1CCN(c2ncnc3scc(-c4ccccc4)c23)CC1 (configuration not stated) |
| < 500 | Fc1cccc(-c2csc3ncnc(N4CCC(COCCN5CCCC5)CC4)c23)c1 |
| < 500 | FC1(F)CCN(CCOCC2CCN(c3ncnc4scc(-c5ccccc5)c34)CC2)C1 |
| < 500 | CN1CCCC1CCOCC1CCN(c2ncnc3scc(-c4ccccc4)c23)CC1 (configuration not stated) |
| < 500 | Fc1ccc(-c2csc3ncnc(N4CCC(COCCN5CCCC5)CC4)c23)cc1 |

Further lines, the compound ahead of its results:

| SMILES | IC50 [nM] |
| --- | --- |
| F[C@@H]1CCN(CCOCC2C3CN(c4ncnc5scc(-c6ccccc6)c45)CC23)C1 (some centres not stated) | < 500 |
| NC(=O)[C@@H]1CCCN1CCOCC1C2CN(c3ncnc4scc(-c5ccccc5)c34)CC12 (some centres not stated) | < 500 |
| COc1ncccc1-c1csc2ncnc(N3CCC(COCCN4CCCC4)CC3)c12 | < 500 |
| Cc1sc2ncnc(N3CCC(COCCC4CCCN4C)CC3)c2c1C (configuration not stated) | < 500 |
| CN1CCCC1CCOCC1CCN(c2ncnc3scc(-c4cccc(F)c4)c23)CC1 (configuration not stated) | < 500 |
| NC(=O)[C@H]1CCCN1CCOCC1C2CN(c3ncnc4scc(-c5ccccc5)c34)CC12 (some centres not stated) | < 500 |
| CCc1c(C)sc2ncnc(N3CCC(COCCN4CCCC4)CC3)c12 | < 500 |
| F[C@H]1CCN(CCOCC2C3CN(c4ncnc5scc(-c6ccccc6)c45)CC23)C1 (some centres not stated) | < 500 |
| CCc1c(C)sc2ncnc(N3CCC(COCCC4CCCCN4C)CC3)c12 (configuration not stated) | < 500 |
| CN1CCCC1CCOCC1C2CN(c3ncnc4scc(-c5ccccc5)c34)CC12 (configuration not stated) | < 500 |
| CC(C)c1cc2c(N3CCC(COCCN4CCOCC4)CC3)ncnc2s1 | ≤ 3000 |

Reference: ChEMBL document CHEMBL3727349, “Thieno- and furo - pyrimidines and pyridines, useful as potassium channel inhibitors” (2013)
